The values that follow are results of earlier work, collected in patent publication US20200268770A1, “PHARMACEUTICAL COMPOSITION USED FOR TREATING METABOLIC SYNDROME DISORDERS, INFECTIOUS DISEASES, AND COMPLICATIONS THEREOF” (priority 2017, published 2020).

Like-named read-outs stand apart in the source and are kept apart here.

Data set [1] has as its system C57BL/6 mice fed with high fat foods.
The subject of another data set is 3T3-L1 cells. The conditions noted are these: 3T3-L1 cells stimulated by differentiation inducers.
[2] abbreviates: pre-treatment, C57BL/6 mice fed with high fat foods.

Turning to `C=C(C)[C@H]1CC=C(C)CC1` [d-limonene], in data set [1] (setting [2]), the “fasting blood glucose levels” value was “lowered”; the hepatic lipid accumulation entry is “prevented”; the “serum triglycerides (TG)” value was “lowered”; the “size of white and brown adipocytes” value is listed as “decreased”. In addition, in data set [1] (therapeutic, obese mice), the “fasting blood glucose levels” value is listed as “reduced”, the glucose tolerance result is “reduced”, the “high-density lipoprotein cholesterol (HDL-c)” value is on record as “increased” and the “low-density lipoprotein cholesterol (LDL-c)” value was “reduced”. For the same molecule, the “serum TG” value in data set [1] (therapeutic, obese mice) was “reduced”.
Consider `C=C(C)[C@@H]1CC[C@]2(C)CC[C@]3(C)[C@H](CC[C@@H]4[C@@]5(C)CC[C@H](O)C(C)(C)[C@@H]5CC[C@]43C)[C@@H]12` [lupeol], for which, in the data set with 3T3-L1 cells, the TG synthesis entry is “strongly blocked” and the lipid droplet accumulation result is “strongly blocked”. For the setting “after 21 days”, the glycated hemoglobin entry is listed as “decrease”, the nitric oxide entry is reported as “decrease”, the progression of diabetes result is “suppressed” and the serum glucose entry is on record as “decrease”. Besides, where the note is “after 21 days”, the serum insulin levels entry is given as “concomitant increase”. Moreover, where the note is “in vivo”, the antioxidant levels entry is given as “increased” and the “content of thiobarbituric acid-reactive substances” value is on record as “decrease”.
